# Earlier results in US20060052354A1, “Methods for treating migraine” (Corcept Therapeutics, Inc., priority 2002, published 2006).
# What was measured:
# [1] = in one study (Kawai)
# [2] = target: T1, glucocorticoid (GR) receptors (Homo sapiens, UniProt P04150)
# T1 sequence (P04150 1-777): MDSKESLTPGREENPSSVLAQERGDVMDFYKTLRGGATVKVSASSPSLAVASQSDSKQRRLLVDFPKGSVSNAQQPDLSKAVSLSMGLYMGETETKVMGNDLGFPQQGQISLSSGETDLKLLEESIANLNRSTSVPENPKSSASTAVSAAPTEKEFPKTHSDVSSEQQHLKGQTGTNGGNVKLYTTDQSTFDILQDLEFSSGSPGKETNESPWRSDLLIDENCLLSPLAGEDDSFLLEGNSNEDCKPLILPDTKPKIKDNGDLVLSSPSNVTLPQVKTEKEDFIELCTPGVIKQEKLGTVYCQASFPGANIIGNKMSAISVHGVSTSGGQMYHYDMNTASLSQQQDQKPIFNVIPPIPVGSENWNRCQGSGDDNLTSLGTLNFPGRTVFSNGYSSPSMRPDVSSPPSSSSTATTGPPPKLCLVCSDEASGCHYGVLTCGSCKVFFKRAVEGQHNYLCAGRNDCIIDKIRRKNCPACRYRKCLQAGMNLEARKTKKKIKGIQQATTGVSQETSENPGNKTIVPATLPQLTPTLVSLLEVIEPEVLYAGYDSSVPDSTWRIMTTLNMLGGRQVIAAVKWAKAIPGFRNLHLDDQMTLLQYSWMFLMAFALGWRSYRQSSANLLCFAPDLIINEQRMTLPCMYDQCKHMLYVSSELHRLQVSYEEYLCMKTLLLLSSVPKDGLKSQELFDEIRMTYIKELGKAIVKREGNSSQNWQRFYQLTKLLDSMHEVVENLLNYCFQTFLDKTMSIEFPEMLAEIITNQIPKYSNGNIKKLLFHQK
# progesterone receptor = target: T2, progesterone receptor (Homo sapiens, UniProt P06401)
# T2 sequence (P06401 1-933): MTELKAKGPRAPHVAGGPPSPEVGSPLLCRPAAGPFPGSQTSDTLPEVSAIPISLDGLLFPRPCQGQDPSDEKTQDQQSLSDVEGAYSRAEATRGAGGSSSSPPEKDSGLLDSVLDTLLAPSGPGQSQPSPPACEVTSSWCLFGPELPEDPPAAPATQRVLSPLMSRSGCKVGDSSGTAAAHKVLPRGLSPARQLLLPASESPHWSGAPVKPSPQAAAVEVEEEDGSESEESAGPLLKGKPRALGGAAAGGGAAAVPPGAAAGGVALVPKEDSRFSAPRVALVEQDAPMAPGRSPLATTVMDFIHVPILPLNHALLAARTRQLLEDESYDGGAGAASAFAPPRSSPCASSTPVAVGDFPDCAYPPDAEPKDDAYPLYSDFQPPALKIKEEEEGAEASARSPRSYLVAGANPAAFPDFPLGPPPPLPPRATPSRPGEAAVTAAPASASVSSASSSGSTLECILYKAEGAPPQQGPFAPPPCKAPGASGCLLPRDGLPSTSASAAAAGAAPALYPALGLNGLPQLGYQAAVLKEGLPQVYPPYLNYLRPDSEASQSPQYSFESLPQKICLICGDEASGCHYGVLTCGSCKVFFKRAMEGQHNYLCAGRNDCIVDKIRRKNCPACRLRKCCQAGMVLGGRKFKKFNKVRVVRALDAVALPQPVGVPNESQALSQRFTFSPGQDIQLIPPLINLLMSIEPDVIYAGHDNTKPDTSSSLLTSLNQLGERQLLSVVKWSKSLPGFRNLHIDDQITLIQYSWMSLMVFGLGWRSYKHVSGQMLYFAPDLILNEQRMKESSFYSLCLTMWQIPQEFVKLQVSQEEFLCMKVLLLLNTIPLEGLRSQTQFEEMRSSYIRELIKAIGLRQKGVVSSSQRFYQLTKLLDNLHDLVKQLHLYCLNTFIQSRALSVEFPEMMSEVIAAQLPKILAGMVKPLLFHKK
# [3] = target: T3, Mineralocorticoid receptors (MRs) (Homo sapiens, UniProt P08235); conditions: MR versus GR
# T3 sequence (P08235 1-984): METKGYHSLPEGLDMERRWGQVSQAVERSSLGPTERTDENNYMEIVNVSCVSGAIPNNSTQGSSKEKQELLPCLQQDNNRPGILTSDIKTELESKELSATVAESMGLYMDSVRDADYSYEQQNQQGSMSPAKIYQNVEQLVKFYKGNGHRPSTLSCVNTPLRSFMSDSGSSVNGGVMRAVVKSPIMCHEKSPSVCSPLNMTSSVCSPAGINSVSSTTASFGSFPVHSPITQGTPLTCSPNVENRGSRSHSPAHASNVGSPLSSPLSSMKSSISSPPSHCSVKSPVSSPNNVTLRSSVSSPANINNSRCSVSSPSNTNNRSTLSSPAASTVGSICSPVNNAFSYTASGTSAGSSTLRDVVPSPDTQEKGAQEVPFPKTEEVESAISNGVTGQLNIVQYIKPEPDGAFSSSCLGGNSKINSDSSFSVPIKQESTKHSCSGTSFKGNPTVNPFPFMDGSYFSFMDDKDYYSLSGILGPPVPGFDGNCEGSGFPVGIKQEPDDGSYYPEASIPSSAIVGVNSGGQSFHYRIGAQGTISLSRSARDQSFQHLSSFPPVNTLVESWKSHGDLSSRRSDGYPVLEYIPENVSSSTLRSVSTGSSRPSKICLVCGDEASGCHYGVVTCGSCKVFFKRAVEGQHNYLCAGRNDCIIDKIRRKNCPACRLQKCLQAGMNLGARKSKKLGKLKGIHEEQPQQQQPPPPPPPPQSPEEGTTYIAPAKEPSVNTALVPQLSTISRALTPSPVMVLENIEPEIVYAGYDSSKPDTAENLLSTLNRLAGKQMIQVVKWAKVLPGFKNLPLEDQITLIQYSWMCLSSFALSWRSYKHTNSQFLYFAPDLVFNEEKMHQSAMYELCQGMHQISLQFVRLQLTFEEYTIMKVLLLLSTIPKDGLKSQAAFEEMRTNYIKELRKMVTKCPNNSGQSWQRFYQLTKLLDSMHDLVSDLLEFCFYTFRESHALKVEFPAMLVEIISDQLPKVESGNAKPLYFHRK
compound,measurement,setting,value
"CC#C[C@]1(O)CC[C@H]2[C@@H]3CCC4=CC(=O)CCC4=C3[C@@H](c3ccc(N(C)C)cc3)C[C@@]21C [Mifepristone, (11β,17β) 11 [4 (dimethylamino)phenyl]-17 hydroxy-17 (1 propynyl)estra-4,9 dien-3 one]",daily dose excreted in the urine,[1],less than 0.5%
same,antagonist of the glucocorticoid (GR) receptor,[2],powerful antagonist
same,antagonist of the progesterone receptor,progesterone receptor,powerful antagonist
C[C@]12CCC(=O)C=C1CC[C@@H]1[C@@H]2[C@@H](O)C[C@@]2(C)[C@H]1CC[C@]2(O)C(=O)CO [cortisol],affinity of MRs for cortisol relative to GRs for glucocorticoids,[3],ten-fold
"CC#C[C@]1(O)CC[C@H]2[C@@H]3CCC4=CC(=O)CCC4=C3[C@@H](c3ccc(OCCN(C)C)cc3)C[C@@]21C [RU009, 11β-(4-dimethylaminoethoxyphenyl)-17α-propynyl-17β-hydroxy-4,9-estradien-3-one]",antagonist of the glucocorticoid (GR) receptor,[2],GR antagonist effects
